Activity calls are given as the source filed them. The rule behind the calls is not given here.

The EC50 is the concentration that produces a half-maximal response. Read a low EC50 as higher potency in that assay.

In experiment [1] the target is T1, Oxysterols receptor LXR-beta (Homo sapiens) (UniProt P55055).
T1 sequence (whole entry): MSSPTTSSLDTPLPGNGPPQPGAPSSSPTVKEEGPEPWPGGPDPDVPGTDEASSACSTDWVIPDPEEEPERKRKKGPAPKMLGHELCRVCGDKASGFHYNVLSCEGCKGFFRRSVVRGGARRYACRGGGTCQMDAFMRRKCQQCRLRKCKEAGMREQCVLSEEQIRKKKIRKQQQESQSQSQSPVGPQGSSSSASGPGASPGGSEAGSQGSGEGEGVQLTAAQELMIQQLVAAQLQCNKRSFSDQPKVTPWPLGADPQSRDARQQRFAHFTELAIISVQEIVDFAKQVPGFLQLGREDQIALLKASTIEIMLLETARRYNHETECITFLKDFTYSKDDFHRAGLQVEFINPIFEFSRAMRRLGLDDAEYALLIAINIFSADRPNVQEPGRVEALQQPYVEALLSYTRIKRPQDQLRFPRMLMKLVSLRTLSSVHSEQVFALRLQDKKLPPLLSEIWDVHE
As to the kind of experiment: Agonist activity at LXRbeta (unknown origin) at < 20 uM.

Experiment [2] deals with T2, Peroxisome proliferator-activated receptor alpha (Homo sapiens, UniProt Q07869).
T2 sequence (Q07869 whole entry): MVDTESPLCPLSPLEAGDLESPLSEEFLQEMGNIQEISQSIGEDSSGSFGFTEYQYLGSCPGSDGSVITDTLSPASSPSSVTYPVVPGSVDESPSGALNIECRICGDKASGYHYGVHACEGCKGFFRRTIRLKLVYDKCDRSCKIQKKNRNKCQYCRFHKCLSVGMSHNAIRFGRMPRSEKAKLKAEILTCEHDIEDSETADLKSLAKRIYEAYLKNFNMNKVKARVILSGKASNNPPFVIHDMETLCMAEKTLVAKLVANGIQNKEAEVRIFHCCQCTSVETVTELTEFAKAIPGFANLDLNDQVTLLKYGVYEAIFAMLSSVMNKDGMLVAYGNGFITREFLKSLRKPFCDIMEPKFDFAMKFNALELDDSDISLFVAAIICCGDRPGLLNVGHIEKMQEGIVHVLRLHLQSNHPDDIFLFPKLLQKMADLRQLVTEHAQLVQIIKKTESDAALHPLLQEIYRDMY
Description: Agonist activity at N-terminal Gal4 fused human PPARalpha LBD transfected in HEK293 cells after 24 hrs by luciferase reporter gene assay. Format: cell-based. A general note: Reporter assays use an easily measured gene product as a stand-in for the process of interest.

Experiment [3] has as its target T3, Peroxisome proliferator-activated receptor gamma (Homo sapiens) (UniProt P37231).
T3 sequence (whole entry): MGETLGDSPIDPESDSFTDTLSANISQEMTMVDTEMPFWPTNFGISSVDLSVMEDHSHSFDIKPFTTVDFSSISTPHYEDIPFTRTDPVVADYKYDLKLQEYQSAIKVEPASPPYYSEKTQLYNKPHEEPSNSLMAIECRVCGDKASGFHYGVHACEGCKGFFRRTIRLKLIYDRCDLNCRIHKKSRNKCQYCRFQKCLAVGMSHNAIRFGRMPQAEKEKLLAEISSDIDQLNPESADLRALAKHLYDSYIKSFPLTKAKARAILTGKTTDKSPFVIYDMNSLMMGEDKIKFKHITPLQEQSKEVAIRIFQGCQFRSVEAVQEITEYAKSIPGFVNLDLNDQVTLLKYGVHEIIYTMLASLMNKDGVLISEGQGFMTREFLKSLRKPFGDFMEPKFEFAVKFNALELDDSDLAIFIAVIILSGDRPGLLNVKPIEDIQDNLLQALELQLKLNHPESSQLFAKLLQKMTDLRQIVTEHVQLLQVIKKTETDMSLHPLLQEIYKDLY
As to the kind of experiment: Agonist activity at N-terminal Gal4 fused human PPARgamma LBD transfected in HEK293 cells at < 10 uM after 24 hrs by luciferase reporter gene assay. Format: cell-based.

The target of experiment [4] is T4, Retinoic acid receptor RXR-alpha (Homo sapiens) (UniProt P19793).
T4 sequence (whole entry): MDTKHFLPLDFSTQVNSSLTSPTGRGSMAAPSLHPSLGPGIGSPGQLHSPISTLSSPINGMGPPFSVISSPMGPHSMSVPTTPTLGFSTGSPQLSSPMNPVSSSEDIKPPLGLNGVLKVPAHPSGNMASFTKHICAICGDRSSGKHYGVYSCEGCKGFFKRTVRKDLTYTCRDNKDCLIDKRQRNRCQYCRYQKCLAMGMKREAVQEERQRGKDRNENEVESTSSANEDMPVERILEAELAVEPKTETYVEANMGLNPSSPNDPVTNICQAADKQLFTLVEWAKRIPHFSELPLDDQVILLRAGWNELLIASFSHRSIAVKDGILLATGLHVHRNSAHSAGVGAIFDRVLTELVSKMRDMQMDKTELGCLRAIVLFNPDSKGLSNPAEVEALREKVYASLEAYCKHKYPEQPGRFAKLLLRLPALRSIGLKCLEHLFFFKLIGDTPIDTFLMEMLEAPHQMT
As to the kind of experiment: Agonist activity at RXRalpha (unknown origin) at < 20 uM.

In experiment [5] the target is T5, Oxysterols receptor LXR-alpha (Homo sapiens) (UniProt Q13133).
T5 sequence (whole entry): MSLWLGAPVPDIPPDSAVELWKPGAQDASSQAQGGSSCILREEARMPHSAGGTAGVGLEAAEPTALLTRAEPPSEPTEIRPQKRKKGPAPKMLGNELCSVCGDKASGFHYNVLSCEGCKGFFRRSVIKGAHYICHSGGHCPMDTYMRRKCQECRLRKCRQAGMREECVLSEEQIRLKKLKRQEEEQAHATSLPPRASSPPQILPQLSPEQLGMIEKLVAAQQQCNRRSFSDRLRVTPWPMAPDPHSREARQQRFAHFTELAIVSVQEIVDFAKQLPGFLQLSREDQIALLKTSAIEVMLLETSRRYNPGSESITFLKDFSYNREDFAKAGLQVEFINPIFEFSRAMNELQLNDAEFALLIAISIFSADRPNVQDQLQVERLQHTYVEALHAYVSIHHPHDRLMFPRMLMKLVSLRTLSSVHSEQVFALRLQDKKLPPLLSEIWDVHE
Description: Agonist activity at LXRalpha (unknown origin) at < 20 uM.

Turning to `CC(=O)NC(C)c1nc(-c2ccc(Oc3ccc(OCc4ccccc4)cc3)cc2)no1` (stereo not given), the outcome in experiment [1], in experiment [3], in experiment [4] and in experiment [5] was inactive. This compound also registered an EC50 in experiment [2] of 33 nM.

Values taken from ChEMBL document CHEMBL4428109, “Structure-activity relationship studies of non-carboxylic acid peroxisome proliferator-activated receptor α/δ (PPARα/δ) dual agonists” (Bioorg Med Chem, 2016).
